According to US9131690B2, “Macrocyclic picolinamides as fungicides” (Dow AgroSciences LLC, priority 2012, dated 2015):
Like-named read-outs stand apart in the source and are kept apart here.

Key:
[1] = system: Mycosphaerella graminicola; Anamorph: Septoria tritici; assay: Fungicidal activity: Leaf Blotch of Wheat (SEPTTR), wheat plants variety Yuma; type: in vivo; details: Zymoseptoria tritici
How it was run: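 Greenhouse wheat seedlings at first-leaf stage, 7-10 per pot, inoculated with aqueous Septoria tritici spore suspension before or after fungicide treatment. Kept at 100% relative humidity (1 day dark dew chamber, then 2-3 days lighted), then greenhouse at 20° C. for disease development.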

[2] = system: Puccinia triticina. Synonym: Puccinia recondite f. sp. tritici; assay: Fungicidal activity: Wheat Brown Rust (PUCCRT), wheat plants variety Yuma; type: in vivo; parameters: key to PUCCRT 3DC Disease Control: A: 50-100; B: More than 0-Less than 50; C: Not Tested; D: No activity noticed in this bioassay; details: for pest or weed control at 100 ppm: Puccinia triticina
How it was run: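 Yuma wheat seedlings at first-leaf stage were inoculated with P. triticina spore suspension before or after fungicide treatment. Plants were held overnight at 100% relative humidity, then kept in a 24 C greenhouse for disease development.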

[3] = 24 h, 1 Day Protectant, read-out: SEPTTR 1DP Disease Control
[4] = 72 h, 3 Day Curative, read-out: SEPTTR 3DC Disease Control
[5] = 24 h, 1 Day Protectant, read-out: PUCCRT 1DP Disease Control
[6] = 72 h, 3 Day Curative, read-out: PUCCRT 3DC Disease Control

SMILES | melting point | pest or weed control at 100 ppm [1, 3] | pest or weed control at 100 ppm [1, 4] | pest or weed control at 100 ppm [2, 5] | pest or weed control at 100 ppm [2, 6] | PUCCRT 3DC Disease Control ([2]; 100 ppm, 3 Day Curative)
COc1ccnc(C(=O)N[C@H]2COC(=O)[C@H](CCn3cc(-c4ccccc4)nn3)[C@@H](OC(=O)C(C)C)[C@H](C)OC2=O)c1O [Compound 55] | 222 to 224 °C | 50 to 100% | 0 to 50% | 50 to 100% | 0 to 50% | 
COc1ccnc(C(=O)N[C@H]2COC(=O)[C@H](CCOS(C)(=O)=O)[C@@H](OC(=O)C(C)C)[C@H](C)OC2=O)c1O [Compound 56, (3S,6S,7R,8R)-3-(3-hydroxy-4-methoxypicolinamido)-6-methyl-8-(2(methylsulfonyloxy)ethyl)-4,9-dioxo-1,5-dioxonan-7-yl isobutyrate] | 153 to 155 °C | 0 to 50% | 0 to 50% | 50 to 100% | 0 to 50% | 
COc1ccnc(C(=O)N[C@H]2COC(=O)[C@H](CCc3ccccc3)[C@@H](OC(=O)C(C)C)[C@H](C)OC2=O)c1O [Compound 57, (3S,6S,7R,8R)-3-(3-hydroxy-4-methoxypicolinamido)-6-methyl-4,9-dioxo-8-phenethyl-1,5-dioxonan-7-yl isobutyrate] | 183 to 184 °C | 50 to 100% | 0 to 50% | 50 to 100% | 50 to 100% | 
COc1ccnc(C(=O)N[C@H]2COC(=O)[C@H](CCc3ccc(F)cc3)[C@@H](OC(=O)C(C)C)[C@H](C)OC2=O)c1O [Compound 58] | 142 to 144 °C | 50 to 100% | 0 to 50% | 50 to 100% | 50 to 100% | 
COc1ccnc(C(=O)N[C@H]2COC(=O)[C@H](CCc3cccnc3)[C@@H](OC(=O)C(C)C)[C@H](C)OC2=O)c1O [Compound 59] | 169 to 170 °C | 0 to 50% | 0 to 50% | 50 to 100% | 0 to 50% | 

Continued, in another order:

melting point | SMILES | pest or weed control at 100 ppm [1, 3] | pest or weed control at 100 ppm [1, 4] | pest or weed control at 100 ppm [2, 5] | pest or weed control at 100 ppm [2, 6] | PUCCRT 3DC Disease Control ([2]; 100 ppm, 3 Day Curative)
139 to 140 °C | COc1ccnc(C(=O)N[C@H]2COC(=O)[C@H](CCOCc3ccccc3)[C@@H](OC(=O)C(C)C)[C@H](C)OC2=O)c1O [Compound 60, (3S,6S,7R,8R)-8-(2-(benzyloxy)ethyl)-3-(3-hydroxy-4-methoxypicolinamido)-6-methyl-4,9-dioxo-1,5-dioxonan-7-yl isobutyrate] | 50 to 100% | 0 to 50% | 50 to 100% | 50 to 100% | 
188 to 189 °C | COc1ccnc(C(=O)N[C@H]2COC(=O)[C@H](CC3CCCCC3)[C@@H](OC(=O)C(C)C)[C@H](C)OC2=O)c1O [Compound 61, (3S,6S,7R,8R)-8-(cyclohexylmethyl)-3-(3-hydroxy-4-methoxypicolinamido)-6-methyl-4,9-dioxo-1,5-dioxonan-7-yl isobutyrate] | 50 to 100% | 50 to 100% | 50 to 100% | 0 to 50% | 
131 to 134 °C | CCCCCCC[C@H]1C(=O)OC[C@H](NC(=O)c2nccc(OC)c2O)C(=O)O[C@@H](C)[C@@H]1OC(=O)C(C)C [Compound 63, (3S,6S,7R,8R)-8-heptyl-3-(3-hydroxy-4-methoxypicolinamido)-6-methyl-4,9-dioxo-1,5-dioxonan-7-yl isobutyrate] | 50 to 100% | 0 to 50% | 50 to 100% |  | D
165 to 168 °C | CCC[C@H]1C(=O)OC[C@H](NC(=O)c2nccc(OC)c2O)C(=O)O[C@@H](C)[C@@H]1OC(=O)C(C)C [Compound 64] | 50 to 100% | 50 to 100% | 50 to 100% | 0 to 50% | 
